#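 Protocol summary: plate cells (96-well), add compound at 5 concentrations, incubate 48 h, interpolate endpoints linearly. Abbreviation: GI50, concentration required for 50% inhibition of growth. TGI: total growth inhibition.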
# How the values were obtained:
# Assay in all cases: NCI-60 cell line screen, 48 h
# OVCAR-4 ovarian = test system: OVCAR-4 ovarian
# SW-620 colon = test system: SW-620 colon
# SK-MEL-2 melanoma = test system: SK-MEL-2 melanoma
# SF-539 CNS = test system: SF-539 CNS
# HOP-92 NSCLC = test system: HOP-92 NSCLC
# U251 CNS = test system: U251 CNS
# IGROV1 ovarian = test system: IGROV1 ovarian
# OVCAR-3 ovarian = test system: OVCAR-3 ovarian
# ACHN renal = test system: ACHN renal
# NCI-H460 lung = test system: NCI-H460 lung
# HCT-15 colon = test system: HCT-15 colon
# SNB-75 CNS = test system: SNB-75 CNS
# NCI/ADR-RES ovarian = test system: NCI/ADR-RES ovarian
# SK-OV-3 ovarian = test system: SK-OV-3 ovarian
# TK-10 renal = test system: TK-10 renal
# A549 NSCLC = test system: A549 NSCLC
# RPMI-8226 leukemia = test system: RPMI-8226 leukemia
# OVCAR-8 ovarian = test system: OVCAR-8 ovarian
# KM12 colon = test system: KM12 colon
# NCI-H226 lung = test system: NCI-H226 lung
# PC-3 prostate = test system: PC-3 prostate
# NCI-H23 lung = test system: NCI-H23 lung
# MDA-MB-435 = test system: MDA-MB-435
# RXF 393 renal = test system: RXF 393 renal
# HOP-62 NSCLC = test system: HOP-62 NSCLC
# SK-MEL-28 melanoma = test system: SK-MEL-28 melanoma
# SNB-19 CNS = test system: SNB-19 CNS
# HT29 colon = test system: HT29 colon
# SF-268 CNS = test system: SF-268 CNS
smiles,measurement,setting,value
COc1ccc2c(c1)C(=O)c1c-2n(CCCNCCO)c(=O)c2ccccc12,GI50,OVCAR-4 ovarian,301 nM
same,TGI,OVCAR-4 ovarian,2230 nM
same,GI50,SW-620 colon,53 nM
same,TGI,SW-620 colon,1460 nM
same,GI50,SK-MEL-2 melanoma,734 nM
same,TGI,SK-MEL-2 melanoma,2570 nM
same,GI50,SF-539 CNS,76.4 nM
same,TGI,SF-539 CNS,408 nM
same,GI50,HOP-92 NSCLC,87 nM
same,TGI,HOP-92 NSCLC,531 nM
same,GI50,U251 CNS,82.1 nM
same,TGI,U251 CNS,1170 nM
same,GI50,IGROV1 ovarian,150 nM
same,TGI,IGROV1 ovarian,2330 nM
same,GI50,OVCAR-3 ovarian,331 nM
same,TGI,OVCAR-3 ovarian,1410 nM
same,GI50,ACHN renal,39.7 nM
same,TGI,ACHN renal,240 nM
same,TGI,NCI-H460 lung,137 nM
same,GI50,HCT-15 colon,154 nM
same,TGI,HCT-15 colon,1180 nM
same,GI50,SNB-75 CNS,261 nM
same,TGI,SNB-75 CNS,1250 nM
same,GI50,NCI/ADR-RES ovarian,807 nM
same,TGI,NCI/ADR-RES ovarian,3380 nM
same,GI50,SK-OV-3 ovarian,218 nM
same,TGI,SK-OV-3 ovarian,1420 nM
same,GI50,TK-10 renal,316 nM
same,TGI,TK-10 renal,3030 nM
same,GI50,A549 NSCLC,62.6 nM
same,TGI,A549 NSCLC,310 nM
same,GI50,RPMI-8226 leukemia,72.7 nM
same,TGI,RPMI-8226 leukemia,594 nM
same,GI50,OVCAR-8 ovarian,90.8 nM
same,TGI,OVCAR-8 ovarian,1900 nM
same,GI50,KM12 colon,200 nM
same,TGI,KM12 colon,1240 nM
same,GI50,NCI-H226 lung,486 nM
same,TGI,NCI-H226 lung,2310 nM
same,GI50,PC-3 prostate,272 nM
same,TGI,PC-3 prostate,2290 nM
same,GI50,NCI-H23 lung,120 nM
same,TGI,NCI-H23 lung,563 nM
same,GI50,MDA-MB-435,322 nM
same,TGI,MDA-MB-435,1620 nM
same,GI50,RXF 393 renal,963 nM
same,TGI,RXF 393 renal,3950 nM
same,GI50,HOP-62 NSCLC,57.5 nM
same,TGI,HOP-62 NSCLC,462 nM
same,GI50,SK-MEL-28 melanoma,897 nM
same,TGI,SK-MEL-28 melanoma,2490 nM
same,GI50,SNB-19 CNS,117 nM
same,TGI,SNB-19 CNS,1060 nM
same,GI50,HT29 colon,76.4 nM
same,TGI,HT29 colon,1760 nM
same,GI50,SF-268 CNS,120 nM
same,TGI,SF-268 CNS,1430 nM
